Assay results: patent US20070128217A1 (priority 2003, published 2007)

Columns and labels:
[1] = test system: antibodies in sera from SARS patients (sera 1a, 1b, 2, 6, 37, 62, London, SARS-yellow, SARS-green); assay type: binding, human; parameters: Binding of serum 6 to linear peptides of protein X1 of SARS-CoV Urbani / Binding of serum 37 to linear peptides of protein X1 of SARS-CoV Urbani / Binding of serum 6 to looped/cyclic peptide (PEPSCAN-ELISA) / Binding of serum 37 to looped/cyclic peptide (PEPSCAN-ELISA) / Binding of serum 37 to looped/cyclic peptides of protein X1 of SARS-CoV Urbani / Binding of serum 6 to linear peptides of protein X2 / Binding of serum 37 to linear peptides of protein X2 / Binding of serum 37 to looped/cyclic peptides of protein X2 of SARS-CoV Urbani / Binding of serum 6 to linear peptides of protein M of SARS-CoV Urbani / Binding of serum 37 to linear peptides of protein M of SARS-CoV Urbani / Binding of serum 6 to looped/cyclic peptides of protein M of SARS-CoV Urbani / Binding of serum 37 to looped/cyclic peptides of protein M of SARS-CoV Urbani / Binding of serum 6 to linear peptides of protein X3 of SARS-CoV Urbani / Binding of serum 37 to linear peptides of protein X3 of SARS-CoV Urbani / Binding of serum 37 to looped/cyclic peptides of protein X3 of SARS-CoV Urbani / Binding of serum 6 to linear peptides of protein X4 of SARS-CoV Urbani / Binding of serum 37 to linear peptides of protein X4 of SARS-CoV Urbani / Binding of serum 37 to looped/cyclic peptides of protein X4 of SARS-CoV Urbani / Binding of serum 6 to linear peptides of protein X5 of SARS-CoV Urbani / Binding of serum 37 to linear peptides of protein X5 of SARS-CoV Urbani / Binding of serum 37 to looped/cyclic peptides of protein X5 of SARS-CoV Urbani / Binding of serum 6 to linear peptides of protein N of SARS-CoV Urbani / Binding of serum 37 to linear peptides of protein N of SARS-CoV Urbani / Binding of serum 6 to linear peptide (PEPSCAN-ELISA) / Binding of serum 1a to looped/cyclic peptides of protein N of SARS-CoV Urbani / Binding of serum 1b to looped/cyclic peptides of protein N of SARS-CoV Urbani / Binding of serum 2 to looped/cyclic peptides of protein N of SARS-CoV Urbani / Binding of serum 6 to looped/cyclic peptides of protein N of SARS-CoV Urbani / Binding of serum 37 to looped/cyclic peptides of protein N of SARS-CoV Urbani / Binding of serum 62 to looped/cyclic peptides of protein N of SARS-CoV Urbani / Binding of serum London to looped/cyclic peptides of protein N of SARS-CoV Urbani / Binding of serum SARS-green to looped/cyclic peptides of protein N of SARS-CoV Urbani: unit not given here
[2] = test system: control sera (pooled serum of ten healthy LUMC hospital workers; commercial negative donor pooled serum from the Dutch bloodbank); assay type: binding, human; parameters: Binding of Control serum LUMC to linear peptides / Binding of Control serum Blood-bank to linear peptides / Binding of Control serum LUMC to looped peptides / Binding of Control Serum Blood-Bank to Looped peptides / Binding of Control serum LUMC to linear peptides of the protein M of SARS-CoV Urbani / Binding of Control serum Blood-bank to linear peptides of the protein M of SARS-CoV Urbani / Binding of Control serum LUMC to looped peptides of the protein M of SARS-CoV Urbani / Binding of Control Serum Blood-Bank to Looped peptides of the protein M of SARS-CoV Urbani: unit not given here
[3] = test system: rabbit serum obtained by immunizing a rabbit with the SARS-CoV strain Frankfurt 1; assay type: binding; parameters: Binding of a rabbit serum to linear peptides / Binding of a rabbit serum to looped peptides / Rabbit serum linear peptides / Rabbit serum looped peptides / Binding of a rabbit serum to linear peptides of protein N of SARS-CoV Urbani (Rabbit serum linear peptides) / Binding of a rabbit serum to looped/cyclic peptides of protein N of SARS-CoV Urbani (Rabbit serum looped peptides): unit not given here

WKCKSKNPLLYDANY
Binding of serum 1a to linear peptides of protein X1 of SARS-CoV Urbani [1]: 0.8
Binding of serum 1a to looped/cyclic peptide (PEPSCAN-ELISA) [1]: 0.6
Binding of serum 1b to linear peptides of protein X1 of SARS-CoV Urbani [1]: 0.8
Binding of serum 1b to looped/cyclic peptide (PEPSCAN-ELISA) [1]: 0.5
Binding of serum 2 to linear peptides of protein X1 of SARS-CoV Urbani [1]: 0.6
Binding of serum 2 to looped/cyclic peptide (PEPSCAN-ELISA) [1]: 0.4
Binding of serum 6 to linear peptides of protein X1 of SARS-CoV Urbani [1]: 0.7
Binding of serum 6 to looped/cyclic peptide (PEPSCAN-ELISA) [1]: 0.3
Binding of serum 37 to linear peptides of protein X1 of SARS-CoV Urbani [1]: 0.8
Binding of serum 37 to looped/cyclic peptide (PEPSCAN-ELISA) [1]: 0.6
Binding of serum 62 to linear peptides of protein X1 of SARS-CoV Urbani [1]: 0.7
Binding of serum 62 to looped/cyclic peptide (PEPSCAN-ELISA) [1]: 0.6
Binding of serum London to linear peptides of protein X1 of SARS-CoV Urbani [1]: 0.3
Binding of serum London to looped/cyclic peptide (PEPSCAN-ELISA) [1]: 0.2
Binding of serum SARS-green to linear peptides of protein X1 of SARS-CoV Urbani [1]: 0.4
Binding of serum SARS-green to looped/cyclic peptide (PEPSCAN-ELISA) [1]: 0.3
Binding of serum SARS-yellow to linear peptides of protein X1 of SARS-CoV Urbani [1]: 0.5
Binding of serum SARS-yellow to looped/cyclic peptide (PEPSCAN-ELISA) [1]: 0.5
Binding of Control Serum Blood-Bank to Looped peptides [2]: 0.6
Binding of Control serum Blood-bank to linear peptides [2]: 0.7
Binding of Control serum LUMC to linear peptides [2]: 0.8
Binding of Control serum LUMC to looped peptides [2]: 0.5
Binding of a rabbit serum to linear peptides [3]: 0.1
Binding of a rabbit serum to looped peptides [3]: 0.6

WLCALGKVLPFHRWH
Binding of serum 1a to linear peptides of protein X5 of SARS-CoV Urbani [1]: 0.7
Binding of serum 1a to looped/cyclic peptides of protein X5 of SARS-CoV Urbani [1]: 0.5
Binding of serum 1b to linear peptides of protein X5 of SARS-CoV Urbani [1]: 0.6
Binding of serum 1b to looped/cyclic peptides of protein X5 of SARS-CoV Urbani [1]: 0.4
Binding of serum 2 to linear peptides of protein X5 of SARS-CoV Urbani [1]: 0.7
Binding of serum 2 to looped/cyclic peptides of protein X5 of SARS-CoV Urbani [1]: 0.6
Binding of serum 6 to linear peptides of protein X5 of SARS-CoV Urbani [1]: 0.8
Binding of serum 6 to looped/cyclic peptides of protein X5 of SARS-CoV Urbani [1]: 0.7
Binding of serum 37 to linear peptides of protein X5 of SARS-CoV Urbani [1]: 0.7
Binding of serum 37 to looped/cyclic peptides of protein X5 of SARS-CoV Urbani [1]: 0.5
Binding of serum 62 to linear peptides of protein X5 of SARS-CoV Urbani [1]: 0.8
Binding of serum 62 to looped/cyclic peptides of protein X5 of SARS-CoV Urbani [1]: 0.7
Binding of serum London to linear peptides of protein X5 of SARS-CoV Urbani [1]: 0.8
Binding of serum London to looped/cyclic peptides of protein X5 of SARS-CoV Urbani [1]: 0.5
Binding of serum SARS-green to linear peptides of protein X5 of SARS-CoV Urbani [1]: 0.6
Binding of serum SARS-green to looped/cyclic peptides of protein X5 of SARS-CoV Urbani [1]: 0.5
Binding of serum SARS-yellow to linear peptides of protein X5 of SARS-CoV Urbani [1]: 0.2
Binding of serum SARS-yellow to looped/cyclic peptides of protein X5 of SARS-CoV Urbani [1]: 0.6
Binding of Control Serum Blood-Bank to Looped peptides [2]: 0.4
Binding of Control serum Blood-bank to linear peptides [2]: 0.9
Binding of Control serum LUMC to linear peptides [2]: 0.6
Binding of Control serum LUMC to looped peptides [2]: 0.6
Rabbit serum linear peptides [3]: 0.6
Rabbit serum looped peptides [3]: 0.8

WLCWKCKSKNPLLYD
Binding of serum 1a to looped/cyclic peptide (PEPSCAN-ELISA) [1]: 0.8
Binding of serum 1b to looped/cyclic peptide (PEPSCAN-ELISA) [1]: 0.6
Binding of serum 2 to looped/cyclic peptide (PEPSCAN-ELISA) [1]: 0.6
Binding of serum 6 to looped/cyclic peptide (PEPSCAN-ELISA) [1]: 0.6
Binding of serum 37 to looped/cyclic peptide (PEPSCAN-ELISA) [1]: 0.9
Binding of serum 62 to looped/cyclic peptide (PEPSCAN-ELISA) [1]: 0.7
Binding of serum London to looped/cyclic peptide (PEPSCAN-ELISA) [1]: 0.3
Binding of serum SARS-green to looped/cyclic peptide (PEPSCAN-ELISA) [1]: 0.4
Binding of serum SARS-yellow to looped/cyclic peptide (PEPSCAN-ELISA) [1]: 0.6
Recognition of the peptide by sera of SARS-CoV infected individuals, and form (linear, looped/cyclic) in which it is recognized [1]: recognized in linear form
Binding of Control Serum Blood-Bank to Looped peptides [2]: 0.7
Binding of Control serum Blood-bank to linear peptides [2]: 0.6
Binding of Control serum LUMC to linear peptides [2]: 0.7
Binding of Control serum LUMC to looped peptides [2]: 0.8
Binding of a rabbit serum to linear peptides [3]: 0.2
Binding of a rabbit serum to looped peptides [3]: 0.6

WLLWPVTLACFVLAA
Binding of serum 1a to linear peptides of protein M of SARS-CoV Urbani [1]: 0.6
Binding of serum 1a to looped/cyclic peptides of protein M of SARS-CoV Urbani [1]: 0.7
Binding of serum 1b to linear peptides of protein M of SARS-CoV Urbani [1]: 0.5
Binding of serum 1b to looped/cyclic peptides of protein M of SARS-CoV Urbani [1]: 0.3
Binding of serum 2 to linear peptides of protein M of SARS-CoV Urbani [1]: 0.5
Binding of serum 2 to looped/cyclic peptides of protein M of SARS-CoV Urbani [1]: 0.7
Binding of serum 6 to linear peptides of protein M of SARS-CoV Urbani [1]: 0.4
Binding of serum 6 to looped/cyclic peptides of protein M of SARS-CoV Urbani [1]: 0.5
Binding of serum 37 to linear peptides of protein M of SARS-CoV Urbani [1]: 0.6
Binding of serum 37 to looped/cyclic peptides of protein M of SARS-CoV Urbani [1]: 0.7
Binding of serum 62 to linear peptides of protein M of SARS-CoV Urbani [1]: 0.6
Binding of serum 62 to looped/cyclic peptides of protein M of SARS-CoV Urbani [1]: 0.7
Binding of serum London to linear peptides of protein M of SARS-CoV Urbani [1]: 0.3
Binding of serum London to looped/cyclic peptides of protein M of SARS-CoV Urbani [1]: 0.2
Binding of serum SARS-green to linear peptides of protein M of SARS-CoV Urbani [1]: 0.3
Binding of serum SARS-green to looped/cyclic peptides of protein M of SARS-CoV Urbani [1]: 0.3
Binding of serum SARS-yellow to linear peptides of protein M of SARS-CoV Urbani [1]: 0.0
Binding of serum SARS-yellow to looped/cyclic peptides of protein M of SARS-CoV Urbani [1]: 0.7
Binding of Control Serum Blood-Bank to Looped peptides of the protein M of SARS-CoV Urbani [2]: 0.5
Binding of Control serum Blood-bank to linear peptides of the protein M of SARS-CoV Urbani [2]: 0.4
Binding of Control serum LUMC to linear peptides of the protein M of SARS-CoV Urbani [2]: 0.2
Binding of Control serum LUMC to looped peptides of the protein M of SARS-CoV Urbani [2]: 0.6
Rabbit serum linear peptides [3]: 0.3
Rabbit serum looped peptides [3]: 0.3

WLSYFVASFRLFART
Binding of serum 1a to linear peptides of protein M of SARS-CoV Urbani [1]: 0.6
Binding of serum 1b to linear peptides of protein M of SARS-CoV Urbani [1]: 0.5
Binding of serum 2 to linear peptides of protein M of SARS-CoV Urbani [1]: 0.4
Binding of serum 6 to linear peptides of protein M of SARS-CoV Urbani [1]: 0.4
Binding of serum 37 to linear peptides of protein M of SARS-CoV Urbani [1]: 0.4
Binding of serum 62 to linear peptides of protein M of SARS-CoV Urbani [1]: 0.4
Binding of serum London to linear peptides of protein M of SARS-CoV Urbani [1]: 0.3
Binding of serum SARS-green to linear peptides of protein M of SARS-CoV Urbani [1]: 0.4
Binding of serum SARS-yellow to linear peptides of protein M of SARS-CoV Urbani [1]: 0.1
Recognition of the peptide by sera of SARS-CoV infected individuals, and form (linear, looped/cyclic) in which it is recognized [1]: recognized in looped/cyclic form
Binding of Control Serum Blood-Bank to Looped peptides of the protein M of SARS-CoV Urbani [2]: 0.6
Binding of Control serum Blood-bank to linear peptides of the protein M of SARS-CoV Urbani [2]: 0.7
Binding of Control serum LUMC to linear peptides of the protein M of SARS-CoV Urbani [2]: 0.6
Binding of Control serum LUMC to looped peptides of the protein M of SARS-CoV Urbani [2]: 0.8
Rabbit serum linear peptides [3]: 0.2
Rabbit serum looped peptides [3]: 0.4
